Read-outs that look alike come from different tables or passages of the source.
Tested on: green peach aphid (Myzus persicae)
Test: Myzus test (MYZUPE), sprayed aubergine plants
Assay type: in vivo
Conditions: read-out: effect in % (aphids killed)
Experimental: Solvent: 3 parts by weight of dimethylformamide Emulsifier: 1 part by weight of polyoxyethylenealkyl phenyl ether
An appropriate preparation of active ingredient is prepared by mixing 1 part by weight of active ingredient with the stated amount of solvent and emulsifier and diluting the concentrate with water to the desired concentration.
Aubergine plants (Solanum melongena) infested by all stages of the green peach aphid (Myzus persicae) are sprayed with a preparation of active ingredient at the desired concentration.
After the desired time, the effect in % is determined; here, 100% means that all of the aphids have been killed. Conversely, 0% means that no aphids have been killed.

[1] = application rate of 500 ppm, spray on aubergine plants

Row | SMILES | pest or weed control at 500 ppm [1] [%] | pest or weed control at 500 ppm [%]
1 | COc1cc(OC)nc(Sc2ccc(C(=O)N(C)c3cccnc3)cn2)n1 [I-174] | ≥ 80 | –
2 | CN(C(=O)c1ccc(Oc2ccc(OC(F)(F)F)cc2)nc1)c1cccnc1 [I-116] | ≥ 80 | –
3 | CC(C)O/N=C/c1ccc(C(=O)N(C)c2cccnc2)cc1 [I-234] | ≥ 80 | –
4 | CN(C(=O)c1ccc(Cn2nc(C(F)(F)F)nc2C(F)(F)F)cc1)c1cccnc1 [I-26] | ≥ 80 | –
5 | COC(=O)c1cncc(Oc2ccc(C(=O)Nc3cccnc3)cn2)c1 [I-89] | ≥ 80 | –
6 | O=C(Nc1cccnc1)c1ccc(SC(F)(F)F)cc1 [I-37] | ≥ 80 | –
7 | CC(C)SCc1ccc(C(=O)N(C)c2cccnc2)cc1 [I-61] | ≥ 80 | –
8 | CN(C(=O)c1ccc(Oc2ccc(C#N)cc2)nc1)c1cccnc1 [I-90] | ≥ 80 | –
9 | CC(C)SCc1ccc(C(=O)Nc2cccnc2)cc1 [I-34] | ≥ 80 | –
10 | Cc1cc(C)nc(Sc2ccc(C(=O)N(C)c3ccnnc3)cn2)n1 [I-222] | ≥ 80 | –
11 | CN(C(=O)c1ccc([N+](=O)[O-])cc1)c1cccnc1 [I-21] | ≥ 80 | –
12 | CCN(C(=O)c1ccc(Oc2ccc([N+](=O)[O-])cc2)nc1)c1cccnc1 [I-163] | ≥ 80 | –
13 | C=CCN(C(=O)c1ccc(Cl)nc1)c1cccnc1 [I-231] | ≥ 80 | –
14 | Cc1cccc(Oc2ccc(C(=O)N(C)c3cccnc3)cn2)c1 [I-97] | ≥ 80 | –
15 | CN(C(=O)c1ccc(N(C)C(=O)C(F)(F)C(F)(F)C(F)(F)F)cc1)c1cccnc1 [I-247] | – | ≥ 80
16 | CN(C(=O)c1ccc(Cn2nc(C(F)(F)F)nc2C(F)(F)F)nc1)c1cccnc1 [I-50] | ≥ 80 | –
17 | CN(C(=O)c1ccc(NC(=O)CC(F)(F)F)cc1)c1cccnc1 [I-51] | ≥ 80 | –
18 | O=C(Nc1cccnc1)c1ccc(Cn2cnc(C(F)(F)F)n2)cc1 [I-8] | ≥ 80 | –
19 | COc1cc(OC)nc(Sc2ccc(C(=O)Nc3cccnc3)cn2)n1 [I-173] | ≥ 80 | –
20 | CCCCSCc1ccc(C(=O)Nc2cccnc2)cc1 [I-40] | ≥ 80 | –
21 | CCN(C(=O)c1ccc(Oc2ccc(OC(F)(F)F)cc2)nc1)c1cccnc1 [I-132] | ≥ 80 | –
22 | Cc1ccc(Oc2ccc(C(=O)N(C)c3cccnc3)cn2)cn1 [I-80] | ≥ 80 | –
23 | CCN(C(=O)c1ccc(Oc2nc(OC)cc(OC)n2)cc1)c1cccnc1 [I-172] | ≥ 80 | –

Row | SMILES | pest or weed control at 500 ppm [1] [%] | pest or weed control at 500 ppm [%]
24 | C#CCN(C(=O)c1ccc(Cl)nc1)c1cccnc1 [I-232] | ≥ 80 | –
25 | COc1nc(OC)nc(Sc2ccc(C(=O)N(C)c3cccnc3)cn2)n1 [I-200] | ≥ 80 | –
26 | CCN(C(=O)c1ccc(Sc2ncccn2)nc1)c1cccnc1 [I-196] | ≥ 80 | –
27 | CN(C(=O)c1ccc(C(=O)NCc2ccccc2)cc1)c1cccnc1 [I-255] | ≥ 80 | –
28 | Cc1cc(C)nc(SCc2ccc(C(=O)N(C)c3cccnc3)cc2)n1 [I-70] | ≥ 80 | –
29 | CCOc1ccc(C(=O)N(C)c2cccnc2)cn1 [I-156] | ≥ 80 | –
30 | COc1nc(OC)nc(Sc2ccc(C(=O)N(C)c3cccnc3)cc2)n1 [I-189] | ≥ 80 | –
31 | COc1ccc(C(=O)Nc2cccnc2)cc1C(=O)NC(C)C [I-78] | ≥ 80 | –
32 | CSc1ccc(C(=O)N(C)c2cccnc2)cn1 [I-110] | ≥ 80 | –
33 | C=CCN(C(=O)c1ccc(Sc2nc(C)cc(C)n2)nc1)c1cccnc1 [I-224] | ≥ 80 | –
34 | CN(C(=O)c1cccc(Cn2nc(C(F)(F)F)cc2C(F)(F)F)c1)c1cccnc1 [I-13] | ≥ 80 | –
35 | Cc1ccnc(Sc2ncc(C(=O)N(C)c3cccnc3)cc2Cl)n1 [I-166] | ≥ 80 | –
36 | CN(C(=O)c1ccc(C(F)(F)C(F)(F)C(F)(F)F)nc1)c1cccnc1 [I-48] | – | ≥ 80
37 | CN(C(=O)c1ccc(Oc2cc(C(F)(F)F)cc(C(F)(F)F)c2)nc1)c1cccnc1 [I-124] | ≥ 80 | –
38 | CN(C(=O)c1ccc(CSC(F)F)cc1)c1cccnc1 [I-62] | ≥ 80 | –
39 | O=C(Nc1cccnc1)c1ccc(Cn2nc(C(F)(F)F)nc2C(F)(F)F)cc1 [I-5] | ≥ 80 | –
40 | CCN(CC)C(=O)c1ccc(C(=O)Nc2cccnc2)cc1 [I-250] | ≥ 80 | –
41 | CCN(C(=O)c1ccc(Sc2nc(C)cc(C)n2)cc1)c1cccnc1 [I-180] | ≥ 80 | –
42 | CSc1ccc(C(=O)N(C)c2cccnc2)cc1 [I-53] | ≥ 80 | –
43 | CN(C(=O)c1ccc(Oc2ccc(Cl)cc2Cl)nc1)c1cccnc1 [I-114] | ≥ 80 | –
44 | Cc1cc(C)nc(Sc2ncc(C(=O)N(C)c3cccnc3)cc2Cl)n1 [I-152] | ≥ 80 | –
45 | CCCN(C(=O)c1ccc(Oc2ccc(OC(F)(F)F)cc2)nc1)c1cccnc1 [I-133] | ≥ 80 | –
46 | Cc1ccc(Sc2ccc(C(=O)N(C)c3cccnc3)cn2)cc1 [I-105] | ≥ 80 | –

Row | SMILES | pest or weed control at 500 ppm [1] [%] | pest or weed control at 500 ppm [%]
47 | CC(C)NC(=O)c1cccc(C(=O)N(C)c2cccnc2)c1 [I-75] | ≥ 80 | –
48 | CCN(C(=O)c1ccc(Oc2ccc(C#N)cc2)nc1)c1cccnc1 [I-165] | ≥ 80 | –
49 | CSc1ccc(C(=O)Nc2cccnc2)cn1 [I-108] | ≥ 80 | –
50 | CCN(C(=O)c1ccc(Sc2nc(OC)nc(OC)n2)cc1)c1cccnc1 [I-190] | ≥ 80 | –
51 | O=C(Nc1cccnc1)c1ccc(Oc2ccc(C(F)(F)F)cc2)nc1 [I-109] | ≥ 80 | –
52 | CSCc1cccc(C(=O)Nc2cccnc2)c1 [I-16] | ≥ 80 | –
53 | C#CCN(C(=O)c1ccc(Sc2nc(C)cc(C)n2)nc1)c1cccnc1 [I-225] | ≥ 80 | –
54 | O=C(Nc1cccnc1)c1ccc(N2CCCCC2)nc1 [I-205] | ≥ 80 | –
55 | CCN(C(=O)c1ccc(SC)c(F)c1)c1cccnc1 [I-67] | ≥ 80 | –
56 | CCN(C(=O)c1ccc(Cl)nc1)c1cccnc1 [I-191] | ≥ 80 | –
57 | CCCNc1ccc(C(=O)Nc2cccnc2)cn1 [I-209] | ≥ 80 | –
58 | C=CCN(C(=O)c1ccc(Oc2ccc(OC(F)(F)F)cc2)nc1)c1cccnc1 [I-134] | ≥ 80 | –
59 | CN(C(=O)c1cccc(Cn2cnc(C(F)(F)F)n2)c1)c1cccnc1 [I-12] | ≥ 80 | –
60 | CN(C(=O)c1cnc(Oc2ccc(S(C)(=O)=O)cc2)c(Cl)c1)c1cccnc1 [I-148] | ≥ 80 | –
61 | Cc1cc(C)nc(Sc2ccc(C(=O)N(Cc3ccc([N+](=O)[O-])cc3)c3cccnc3)cn2)n1 [I-229] | ≥ 80 | –
62 | CC(=O)N(C)c1ccc(C(=O)Nc2cccnc2)cc1 [I-252] | ≥ 80 | –
63 | CCN(C)C(=O)c1cccc(C(=O)N(C)c2cccnc2)c1 [I-74] | ≥ 80 | –
64 | COc1ccc(Oc2ccc(C(=O)Nc3cccnc3)cn2)cc1 [I-81] | ≥ 80 | –
65 | CN(C(=O)c1ccc(Sc2ccc(Cl)cc2)nc1)c1cccnc1 [I-107] | ≥ 80 | –
66 | CN(C(=O)c1ccc(Oc2ccc(Cl)cc2)nc1)c1cccnc1 [I-91] | ≥ 80 | –
67 | COc1cc(OC)nc(Oc2ccc(C(=O)Nc3cccnc3)cc2)n1 [I-170] | ≥ 80 | –
68 | CCN(C(=O)c1ccc(Oc2ccc(Cl)cc2)nc1)c1cccnc1 [I-161] | ≥ 80 | –
69 | CCN(C(=O)c1ccc(Oc2ccc(C)cn2)nc1)c1cccnc1 [I-193] | ≥ 80 | –

Row | SMILES | pest or weed control at 500 ppm [1] [%] | pest or weed control at 500 ppm [%]
70 | CCN(C(=O)c1ccc(Sc2nccc(C)n2)nc1)c1cccnc1 [I-197] | ≥ 80 | –
71 | CN(C(=O)c1ccc(Oc2ccc3cccnc3c2)nc1)c1cccnc1 [I-141] | ≥ 80 | –
72 | CCN(C(=O)c1ccc(Sc2nc(C)cc(C)n2)nc1)c1cccnc1 [I-192] | ≥ 80 | –
73 | COc1ccc(C(=O)N(C)c2cccnc2)cc1C(=O)NC(C)C [I-79] | ≥ 80 | –
74 | CCSCc1ccc(C(=O)Nc2cccnc2)cc1 [I-33] | ≥ 80 | –
75 | Cc1ccc(Oc2ccc(C(=O)N(C)c3cccnc3)cn2)cc1 [I-102] | ≥ 80 | –
76 | COc1cc(OC)nc(COc2cccc(C(=O)N(C)c3cccnc3)c2)n1 [I-207] | ≥ 80 | –
77 | CN(CCC#N)C(=O)c1ccc(C(=O)Nc2cccnc2)cc1 [I-244] | ≥ 80 | –
78 | COc1cc(OC)nc(Sc2ccc(C(=O)N(C)c3cccnc3)cc2)n1 [I-177] | ≥ 80 | –
79 | Cc1nc(Sc2ccc(C(=O)N(C)c3cccnc3)cn2)nc(C)c1C [I-138] | ≥ 80 | –
80 | COc1cc(OC)nc(Oc2ccc(C(=O)N(C)c3cccnc3)cc2)n1 [I-171] | ≥ 80 | –
81 | CN(C(=O)c1ccc(Sc2ncccn2)nc1)c1cccnc1 [I-136] | ≥ 80 | –
82 | CN(C(=O)c1ccc(Cn2nc(C(F)(F)F)cc2C(F)(F)F)nc1)c1cccnc1 [I-49] | ≥ 80 | –
83 | CSc1cccc(C(=O)N(C)c2cccnc2)c1 [I-69] | ≥ 80 | –
84 | O=C(Nc1cccnc1)c1ccc(Oc2cccc(Cl)c2)nc1 [I-83, 6-(3-Chlorophenoxy)-N-pyridin-3-ylnicotinamide] | ≥ 80 | –
85 | O=C(Nc1cccnc1)c1ccc(Oc2cccc(C(F)(F)F)c2)nc1 [I-88] | ≥ 80 | –
86 | CCN(C(=O)c1ccc(Sc2nc(OC)cc(OC)n2)cc1)c1cccnc1 [I-178] | ≥ 80 | –
87 | CN(C(=O)c1cnc(Oc2ccc(OC(F)(F)F)cc2)c(Cl)c1)c1cccnc1 [I-147] | ≥ 80 | –
88 | Cc1cc(C)nc(Sc2ccc(C(=O)N(Cc3ccccc3)c3cccnc3)cn2)n1 [I-227] | ≥ 80 | –
89 | CSc1ccc(C(=O)N(C)c2cccnc2)cc1F [I-66] | ≥ 80 | –
90 | CN(C(=O)c1ccc(Cn2cccn2)cc1)c1cccnc1 [I-23] | ≥ 80 | –

— patent publication US20100305124A1, “Acylated Aminopyridine and Aminopyridazine Insecticides” (BAYER CROPSCIENCE AG, priority 2009, published 2010)
